Source: paper PMC8776228 (International Journal of Molecular Sciences, 2022)
In brackets after ≈: the same amount, converted by molar mass. Like-named read-outs stand apart in the source and are kept apart here.

What was measured:
[1] = test system: M. tuberculosis 53.3 (Rv2466c, W28S); assay type: cell-based, Mycobacterium tuberculosis
[2] = test system: M. tuberculosis 53.8 (Rv0579, L240V); assay type: cell-based, Mycobacterium tuberculosis
[3] = test system: M. tuberculosis NTB1 (DprE1 C387S); assay type: cell-based, Mycobacterium tuberculosis
[4] = test system: M. tuberculosis NTB9 (DprE1 C387G); assay type: cell-based, Mycobacterium tuberculosis
[5] = test system: M. tuberculosis DR1 (mmpL3, V681I); assay type: cell-based, Mycobacterium tuberculosis
[6] = test system: M. tuberculosis Ty1 (Rv3405c, c190t); assay type: cell-based, Mycobacterium tuberculosis
[7] = test system: M. tuberculosis 88.1 (coaA, Q207R); assay type: cell-based, Mycobacterium tuberculosis
[8] = test system: M. tuberculosis 88.7 (pyrG, V186G); assay type: cell-based, Mycobacterium tuberculosis
[9] = test system: M. tuberculosis 81.10 (ethA, D1109-37); assay type: cell-based, Mycobacterium tuberculosis
M. tuberculosis IC1 = experiment: microbe, parasite or virus in culture; assay type: cell-based; conditions: Mycobacterium tuberculosis
M. tuberculosis IC2 = experiment: microbe, parasite or virus in culture; assay type: cell-based; conditions: Mycobacterium tuberculosis
[10] = test system: M. tuberculosis H37Rv-pSODIT:dprE1; experiment: microbe, parasite or virus in culture; assay type: cell-based, Mycobacterium tuberculosis

## NNC(=O)c1ccncc1 [INH, isoniazid]
[1]
  MIC INH: 0.025 µg/mL (≈ 0.182 µM)
[2]
  MIC INH: 0.025 µg/mL (≈ 0.182 µM)
[3]
  MIC INH: 0.025 µg/mL (≈ 0.182 µM)
[4]
  MIC INH: 0.025 µg/mL (≈ 0.182 µM)
[5]
  MIC INH: 0.025 µg/mL (≈ 0.182 µM)
[6]
  MIC INH: 0.025 µg/mL (≈ 0.182 µM)
[7]
  MIC INH: 0.025 µg/mL (≈ 0.182 µM)
[8]
  MIC INH: 0.025 µg/mL (≈ 0.182 µM)
[9]
  MIC INH: 0.025 µg/mL (≈ 0.182 µM)
M. tuberculosis IC1; IC1, read-out: MIC INH
  MIC: > 0.2 µg/mL
M. tuberculosis IC2; IC2, read-out: MIC INH
  MIC: > 0.2 µg/mL

## CO[C@H]1C[C@H](O[C@@H]2/C(C)=C/C[C@@H]3C[C@@H](C[C@]4(CC[C@H](C)[C@@H](C5CCCCC5)O4)O3)OC(=O)[C@@H]3C=C(C)/C(=N/O)[C@H]4OC/C(=C\C=C\[C@@H]2C)[C@]43O)O[C@@H](C)[C@@H]1O [Selamectin]
[1]
  MIC SEL: 2 to 4 µg/mL
[2]
  MIC SEL: 2 to 4 µg/mL
[3]
  MIC SEL: 2 µg/mL (≈ 2.6 µM)
  change in sensitivity compared to H37Rv (MIC): two-fold increase in sensitivity
[4]
  MIC SEL: 2 µg/mL (≈ 2.6 µM)
  change in sensitivity compared to H37Rv (MIC): two-fold increase in sensitivity
[10]
  change in susceptibility upon overexpression of dprE1 (MIC): did not confer changes in the susceptibility
[5]
  MIC SEL: 2 to 4 µg/mL
[6]
  MIC SEL: 2 to 4 µg/mL
[7]
  MIC SEL: 2 to 4 µg/mL
[8]
  MIC SEL: 2 to 4 µg/mL
[9]
  MIC SEL: 4 to 8 µg/mL
M. tuberculosis IC1; IC1, read-out: MIC SEL
  MIC: 4 to 8 µg/mL (≈ 5.19 to 10.4 µM)
M. tuberculosis IC2; IC2, read-out: MIC SEL
  MIC: 4 to 8 µg/mL (≈ 5.19 to 10.4 µM)

## C[C@H]1COC2(CCN(c3nc(=O)c4cc(C(F)(F)F)cc([N+](=O)[O-])c4s3)CC2)O1 [BTZ043]
[3]
  MIC BTZ043: >1 µg/mL
[4]
  MIC BTZ043: 1 µg/mL (≈ 2.32 µM)
[10]; Mycobacterium tuberculosis, H37RV, read-out: MIC BTZ043
  MIC: 1 µg/mL (≈ 2.32 µM)
